Measured values: patent US11535630B2, “Apelin receptor (APJ) agonists and uses thereof” (Research Triangle Institute, priority 2015, dated 2022)
Counter-ions that a name gives are not always drawn. Like-named read-outs stand apart in the source and are kept apart here.

Target: T1, apelin receptor (APJ) (Homo sapiens, UniProt P35414)
T1 sequence (P35414 1-380): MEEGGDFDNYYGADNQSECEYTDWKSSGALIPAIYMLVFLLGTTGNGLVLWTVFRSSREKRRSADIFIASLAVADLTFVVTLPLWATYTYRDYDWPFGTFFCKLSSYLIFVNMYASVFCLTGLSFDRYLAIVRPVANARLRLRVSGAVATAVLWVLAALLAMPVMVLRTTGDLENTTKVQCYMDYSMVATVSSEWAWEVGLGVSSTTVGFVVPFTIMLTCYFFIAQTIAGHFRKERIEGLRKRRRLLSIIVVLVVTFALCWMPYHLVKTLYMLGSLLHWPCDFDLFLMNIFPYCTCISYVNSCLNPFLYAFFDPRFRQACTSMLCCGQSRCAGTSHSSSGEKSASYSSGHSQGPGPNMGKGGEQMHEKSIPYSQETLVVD
Assay: In vitro apelin agonist activity (methods of Giddings et al., Apelin-13 as positive control)
Assay type: cell-based
Details: in vitro apelin agonist activity, methods of Giddings et al., Apelin-13 as positive control
Source text: Characterization of the Apelin Agonist Activity of the Compounds
1:39-47, the contents of which are hereby incorporated by reference in its entirety. Using the methods described in Giddings et al. and Apelin-13 as a positive control.

Row | Structure (SMILES) | EC50 (read-out: EC50 (nM) Ave) [nM] | EC50 (EC50 (nM) Ave) [nM]
1 | O=C(C[C@H](CCN1CCCCC1)NC(=O)c1cc(-c2ccccc2C(F)(F)F)n(C2CCCC2)n1)NC1CCC1 [compound 408, (3S)-N-cyclobutyl-3-({1-cyclopentyl-5-[2-(trifluoromethyl)phenyl]-1H-pyrazol-3-yl]formamido)-5-(piperidin-1-yl)pentanamide] | 64 | 
2 | CN(C(=O)C[C@H](CCN1CCCC(F)(F)C1)NC(=O)c1cc(-c2ccccc2C(F)(F)F)n(C2CCCC2)n1)c1nccs1 [compound 431, (3S)-3-({1-cyclopentyl-5-[2-(trifluoromethyl)phenyl]-1H-pyrazol-3-yl}formamido)-5-(3,3-difluoropiperidin-1-yl)-N-methyl-N-(1,3-thiazol-2-yl)pentanamide] | 22.5 | 
3 | O=C(N[C@@H](CCN1CCCC(F)(F)C1)Cc1nnc(C(F)(F)F)[nH]1)c1cc(-c2ccccc2Cl)n(C2CCCC2)n1 [compound 459] | 243 | 
4 | O=C(O)C[C@H](CCN1CCCC(F)(F)C1)NC(=O)c1cc(-c2ccccc2Cl)n(C2CCCC2)n1 [compound 433, (3S)-3-{[5-(2-chlorophenyl)-1-cyclopentyl-1H-pyrazol-3-yl]formamido}-5-(3,3-difluoropiperidin-1-yl)pentanoic acid] | 151 | 
5 | O=C(C[C@H](CCN1CCCC[C@H]1C(F)(F)F)NC(=O)c1cc(-c2ccccc2C(F)(F)F)n(C2CCCC2)n1)NC1CCC1 [compound 496, (3S)-N-cyclobutyl-3-({1-cyclopentyl-5-[2-(trifluoromethyl)phenyl]-1H-pyrazol-3-yl}formamido)-5-[(2S)-2-(trifluoromethyl)piperidin-1-yl]pentanamide] |  | 30
6 | COc1cccc(OC)c1-c1cc(C(=O)N[C@@H](CCc2ccccc2)CC(=O)NCc2nccs2)nn1C1CCCC1 [compound 382, (3S)-3-{[1-cyclopentyl-5-(2,6-dimethoxyphenyl)-1H-pyrazol-3-yl]formamido}-5-phenyl-N-(1,3-thiazol-2-ylmethyl)pentanamide] | 3440 | 
7 | CN1CC(NC(=O)C[C@H](CCc2ccc(F)cc2)NC(=O)c2cc(-c3ccccc3C(F)(F)F)n(C3CCCC3)n2)C1 [compound 482, (3S)-3-({1-cyclopentyl-5-[2-(trifluoromethyl)phenyl]-1H-pyrazol-3-yl}formamido)-5-(4-fluorophenyl)-N-(1-methylazetidin-3-yl)pentanamide] | 474 | 
8 | COc1cccc(OC)c1-c1cc(C(=O)N[C@H](CC(=O)Nc2nccs2)Cc2ccccc2)nn1C1CCCC1 [compound 402, (3S)-3-{[1-cyclopentyl-5-(2,6-dimethoxyphenyl)-1H-pyrazol-3-yl]formamido}-4-phenyl-N-(1,3-thiazol-2-yl)butanamide] | 203 | 
9 | O=C(C[C@H](CCN1CCCCC1)NC(=O)c1cc(-c2cccs2)n(C2CCCC2)n1)NC1CCC1 [compound 362, (3S)-N-cyclobutyl-3-{[1-cyclopentyl-5-(thiophen-2-yl)-1H-pyrazol-3-yl]formamido}-5-(piperidin-1-yl)pentanamide] | 5860 | 
10 | CS(=O)(=O)c1ccccc1-c1cc(C(=O)N[C@@H](CCN2CCCCC2)CC(=O)NC2CCC2)nn1C1CCCC1 [compound 367, (3S)-N-cyclobutyl-3-{[1-cyclopentyl-5-(2-methanesulfonylphenyl)-1H-pyrazol-3-yl]formamido}-5-(piperidin-1-yl)pentanamide] | 2970 | 
11 | COc1cccc(OC)c1-c1cc(C(=O)N[C@@H](CCN2CCCCC2)Cc2nnc(C)o2)nn1C1CCCC1 [compound 343, 1-cyclopentyl-5-(2,6-dimethoxyphenyl)-N-[(2S)-1-(5-methyl-1,3,4-oxadiazol-2-yl)-4-(piperidin-1-yl)butan-2-yl]-1H-pyrazole-3-carboxamide] | 1530 | 
12 | O=C(C[C@H](CCN1CCCCC1)NC(=O)c1cc(-c2ccccc2OC(F)(F)F)n(C2CCCC2)n1)NC1CCC1 [compound 359, (3S)-N-cyclobutyl-3-({1-cyclopentyl-5-[2-(trifluoromethoxy)phenyl]-1H-pyrazol-3-yl]formamido)-5-(piperidin-1-yl)pentanamide] | 271 | 
13 | COc1cccc(OC)c1-c1cc(C(=O)N[C@@H](CCc2ccccc2)Cc2nnn[nH]2)nn1C1CCCC1 [compound 390, 1-cyclopentyl-5-(2,6-dimethoxyphenyl)-N-[(2S)-4-phenyl-1-(1H-1,2,3,4-tetrazol-5-yl)butan-2-yl]-1H-pyrazole-3-carboxamide] | 429 | 
14 | O=C(C[C@H](CCN1CCCC(F)(F)C1)NC(=O)c1cc(-c2cccnc2Cl)n(C2CCCC2)n1)NC1CCC1 [compound 469, (3S)-3-{[5-(2-chloropyridin-3-yl)-1-cyclopentyl-1H-pyrazol-3-yl]formamido}-N-cyclobutyl-5-(3,3-difluoropiperidin-1-yl)pentanamide] | 133 | 
15 | N#CC1CCN(CC[C@@H](CC(=O)NC2CCC2)NC(=O)c2cc(-c3ccccc3C(F)(F)F)n(C3CCCC3)n2)C1 (stereo partly drawn) [compound 481, (3S)-5-(3-cyanopyrrolidin-1-yl)-N-cyclobutyl-3-({1-cyclopentyl-5-[2(trifluoromethyl)phenyl]-1H-pyrazol-3-yl}formamido)pentanamide] | 1.96 | 
16 | COCCN(C)C(=O)[C@H](CCc1ccccc1)NC(=O)c1cc(-c2ccccc2C(F)(F)F)n(C2CCCC2)n1 [compound 542, (2S)-2-({1-cyclopentyl-5-[2-(trifluoromethyl)phenyl]-1H-pyrazol-3-yl}formamido)-N-(2-methoxyethyl)-N-methyl-4-phenylbutanamide] | 105 | 
17 | O=C(C[C@H](CCN1CCCCC1)NC(=O)c1cc(-c2c(OCC(F)(F)F)cccc2OCC(F)(F)F)n(C2CCCC2)n1)NC1CCC1 [compound 353] | > 10000 | 
18 | COc1cccc(OC)c1-c1cc(C(=O)N[C@H](CC(=O)O)c2ccccc2)nn1CC(C)C [compound 300, (3R)-3-{[5-(2,6-dimethoxyphenyl)-1-(2-methylpropyl)-1H-pyrazol-3-yl]formamido}-3-phenylpropanoic acid] | > 10000 | 
19 | CC(F)(F)c1ccccc1-c1cc(C(=O)N[C@@H](CCN2CCCC(F)(F)C2)CC(=O)O)nn1C1CCCC1 [compound 432, (3S)-3-({1-cyclopentyl-5-[2-(1,1-difluoroethyl)phenyl]-1H-pyrazol-3-yl}formamido)-5-(3,3-difluoropiperidin-1-yl)pentanoic acid] | 16 | 
20 | COc1cccc(OC)c1-c1cc(C(=O)N[C@@H](Cc2ccccc2)C(=O)NC2CCC2)nn1CC(C)C [compound 302, (2S)-N-cyclobutyl-2-{[5-(2,6-dimethoxyphenyl)-1-(2-methylpropyl)-1H-pyrazol-3-yl]formamido}-3-phenylpropanamide] | > 10000 | 

Continued, in another order:

Row | EC50 (read-out: EC50 (nM) Ave) [nM] | Structure (SMILES) | EC50 (EC50 (nM) Ave) [nM]
21 | 75 | O=C(O)C[C@H](CCN1C[C@@H](F)[C@H](F)C1)NC(=O)c1cc(-c2ccccc2C(F)(F)F)n(C2CCCC2)n1 [compound 631, (3S)-3-({1-cyclopentyl-5-[2-(trifluoromethyl)phenyl]-1H-pyrazol-3-yl}formamido)-5-[(3R,4R)-3,4-difluoropyrrolidin-1-yl]pentanoic acid] | 
22 | 77 | O=C(O)C[C@H](CCN1C[C@H](F)[C@@H](F)C1)NC(=O)c1cc(-c2ccccc2C(F)(F)F)n(C2CCCC2)n1 [compound 629, (3S)-3-({1-cyclopentyl-5-[2-(trifluoromethyl)phenyl]-1H-pyrazol-3-yl}formamido)-5-[(3S,4S)-3,4-difluoropyrrolidin-1-yl]pentanoic acid] | 
23 | 103 | CC(F)(F)c1ccccc1-c1cc(C(=O)N[C@@H](CCN2C[C@@H](F)[C@@H](F)C2)CC(=O)O)nn1C1CCCC1 [compound 598, (3S)-3-({1-cyclopentyl-5-[2-(1,1-difluoroethyl)phenyl]-1H-pyrazol-3-yl}formamido)-5-[cis-3,4-difluoropyrrolidin-1-yl]pentanoic acid] | 
24 | 43 | O=C(O)C[C@H](CCN1CC[C@@H](F)[C@@H](F)C1)NC(=O)c1cc(-c2ccccc2C(F)(F)F)n(C2CCCC2)n1 [compound 610] | 
25 | 40 | O=C(O)C[C@H](CCN1CC(F)CC(F)C1)NC(=O)c1cc(-c2ccccc2C(F)(F)F)n(C2CCCC2)n1 (stereo partly drawn) [compound 639, (3S)-3-({1-cyclopentyl-5-[2-(trifluoromethyl)phenyl]-1H-pyrazol-3-yl}formamido)-5-(3,5-difluoropiperidin-1-yl)pentanoic acid] | 
26 | 171 | CC(F)(F)c1ccccc1-c1cc(C(=O)N[C@@H](CCN2CC(F)(F)C2)CC(=O)O)nn1C1CCCC1 [compound 589] | 
27 | 353 | O=C(O)C[C@H](CCNC1(C(F)(F)F)CCCC1)NC(=O)c1cc(-c2ccccc2C(F)(F)F)n(C2CCCC2)n1 [compound 615, (3S)-3-({1-cyclopentyl-5-[2-(trifluoromethyl)phenyl]-1H-pyrazol-3-yl}formamido)-5-{[1-(trifluoromethyl)cyclopentyl]amino}pentanoic acid trifluoroacetate] | 
28 | > 10 | O=C(O)C[C@H](CCN1CCCC(F)(F)C1)NC(=O)c1cc(-c2c(Cl)cccc2C(F)(F)F)n(C2CCCC2)n1 [compound 556, (3S)-3-({-[2-chloro-6-(trifluoromethyl)phenyl]-1-cyclopentyl-1H-pyrazol-3-yl}formamido)-5-(3,3-difluoropiperidin-1-yl)pentanoic acid] | 
29 | 401 | O=C(O)C[C@H](CCN1CCCC(F)(F)C1)NC(=O)c1cc(-c2ccccc2C(F)(F)F)n(CC2CC2)n1 [compound 557, (3S)-3-{[1-(cyclopropylmethyl)-5-[2-(trifluoromethyl)phenyl]-1H-pyrazol-3-yl]formamido}-5-(3,3-difluoropiperidin-1-yl)pentanoic acid] | 
